Literature values as cited in paper PMC9080292, “Correction: Rational design of a peptide capture agent for CXCL8 based on a model of the CXCL8:CXCR1 complex” (RSC Advances, 2018).
Square brackets hold non-standard residues; d marks the D form. Ends that are not written are not given here. Ahx = NCCCCCC(=O)O

Experiments:
[1] = synthesized peptide, result in words; ref Helmer et al., RSC Adv., 2015, 5, 25657–25668; cited from earlier work
CXCL8 = target: T1, CXCL8 (Homo sapiens, UniProt P10145); details: original publication; fluorescence anisotropy; now attributed to the peptide ending with glutamic acid; ref Helmer et al., RSC Adv., 2015, 5, 25657–25668; read-out: affinity (reported high affinity); cited from earlier work
T1 sequence (P10145 21-99): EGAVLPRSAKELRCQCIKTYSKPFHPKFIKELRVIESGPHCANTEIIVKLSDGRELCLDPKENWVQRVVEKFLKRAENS
Method: This was confirmed by high resolution mass spectrometry. […] We conclude that all experiments were performed with the peptid ...

| Substance | structure by CD-spectroscopy [1] | Kd (CXCL8) |
| --- | --- | --- |
| AKWRMVLRI[Ahx]ADTLMRTE [IL8-RP-Loops, IL8 capture peptide; actually synthesized peptide with C-terminal glutamic acid] | a helical structure | – |
| AKWRMVLRI–Ahx–ADTLMRTE (AKWRMVLRI[Ahx]ADTLMRTE) [IL8-RP-Loops, IL8 capture peptide; actually synthesized peptide with C-terminal glutamic acid] | – | 0.5 ± 0.3 µM |
